These results are taken from patent US10118894B2, “Isoindolinone derivatives useful as antiviral agents” (priority 2014, dated 2018).

The test system of this test is HIV. Put plainly: MT4 Assay (anti-HIV activity). It is filed as cell-based. Conditions: Human immunodeficiency virus 1, MT4, 96 h, read-out: HIV MT4 Assay IC50. Here is the method:
Antiviral HIV activity and cytotoxicity values for compounds of the invention from Table 1 were measured in parallel in the HTLV-1 transformed cell line MT-4 based on the method previously described (Hazen et al., 2007, In vitro antiviral activity of the novel, tyrosyl-based human immunodeficiency virus (HIV) type 1 protease inhibitor brecanavir (GW640385) in combination with other antiretrovirals and against a panel of protease inhibitor-resistant HIV (Hazen et al., “In vitro antiviral activity of the novel, tyrosyl-based human immunodeficiency virus (HIV) type 1 protease inhibitor brecanavir (GW640385) in combination with other antiretrovirals and against a panel of protease inhibitor-resistant HIV”, Antimicrob. Agents Chemother. 2007, 51: 3147-3154; and Pauwels et al., “Sensitive and rapid assay on MT-4 cells for the detection of antiviral compounds against the AIDS virus”, J. of Virological Methods 1987, 16: 171-185).
Luciferase activity was measured 96 hours later by adding a cell titer glo (Promega, Madison, Wis.). Percent inhibition of cell protection data was plotted relative to no compound control. Under the same condition, cytotoxicity of the compounds was determined using cell titer Glo™ (Promega, Madison, Wis.). IC50s were determined from a 10 point dose response curve using 3-4-fold serial dilution for each compound, which spans a concentration range >1000 fold.
These values are plotted against the molar compound concentrations using the standard four parameter logistic equation: y=((Vmax*x^n)/(K^n+x^n))+Y2
As for `Cc1c(-c2c(C)c3c(c(C)c2[C@H](OC(C)(C)C)C(=O)O)C(=O)N(Cc2ccccc2)C3)cc(F)c2c1CCCO2` (atropisomer, axis not shown; (M)) [Example 5, (S)-2-((M)-2-Benzyl-6-(8-fluoro-5-methylchroman-6-yl)-4,7-dimethyl-3-oxoisoindolin-5-yl)-2-(tert-butoxy)acetic acid], the IC50 – broadly, the concentration at which inhibition is half-maximal – was 5 nM.
On to `Cc1c(-c2c(C)c3c(c(C)c2[C@H](OC(C)(C)C)C(=O)O)C(=O)N(Cc2ccccc2)C3)cc(F)c2c1NCCO2` (atropisomer, axis not shown; (M)) [Example 7, (S)-2-((M)-2-benzyl-6-(8-fluoro-5-methyl-3,4-dihydro-2H-benzo[b][1,4]oxazin-6-yl)-4,7-dimethyl-3-oxoisoindolin-5-yl)-2-(tert-butoxy)acetic acid], for which the IC50 worked out at 14 nM.
As to `Cc1ccc(-c2c(C)c3c(c(C)c2C(OC(C)(C)C)C(=O)O)C(=O)N(Cc2ccccc2)C3)cc1` (stereo not shown) [Example 1, 2-(2-Benzyl-4,7-dimethyl-3-oxo-6-(p-tolyl)isoindolin-5-yl)-2-(tert-butoxy)acetic acid], the IC50 is 25 nM.
Next, `Cc1ccc(-c2c(C)c3c(c(C)c2[C@H](OC(C)(C)C)C(=O)O)C(=O)N(Cc2ccccc2)C3)cc1` [Example 2]: 42 nM; `Cc1c2c(c(C)c(C(OC(C)(C)C)C(=O)O)c1-c1ccc(Cl)cc1)C(=O)N(Cc1ccccc1)C2` (stereo not shown) [Example 3, 2-(2-benzyl-6-(4-chlorophenyl)-4,7-dimethyl-3-oxoisoindolin-5-yl)-2-(tert-butoxy)acetic acid]: 86 nM.
The result for `Cc1c2c(c(C)c(C(OC(C)(C)C)C(=O)O)c1-c1ccc3c(c1)CCCO3)C(=O)N(Cc1ccccc1)C2` (stereo not shown) [Example 4, 2-(2-benzyl-6-(chroman-6-yl)-4,7-dimethyl-3-oxoisoindolin-5-yl)-2-(tert-butoxy)acetic acid] reads 52 nM; that for `Cc1c2c(c(C)c([C@H](OC(C)(C)C)C(=O)O)c1C1=CCC(C)(C)CC1)C(=O)N(Cc1ccccc1)C2` [Example 6, (S)-2-(2-benzyl-6-(4,4-dimethylcyclohex-1-en-1-yl)-4,7-dimethyl-3-oxoisoindolin-5-yl)-2-(tert-butoxy)acetic acid], 36 nM.
